Read-outs that look alike come from different tables or passages of the source. Values belong to the molecule of their own block, whether it stands above or below them.
Columns and labels:
[1] = tested on: bleeding during or after dental procedures; settings: local tranexamic acid as a supplement to systemic therapy; cited from earlier work
[2] = cited from earlier work
[3] = biological target: serum albumin (Homo sapiens, UniProt P02768); settings: cited from earlier work
[4] = tested on: plasma protein; settings: cited from earlier work
[5] = biological target: plasminogen (Homo sapiens, UniProt P00747); settings: cited from earlier work
Chain of plasminogen (P00747 20-810 limits assumed): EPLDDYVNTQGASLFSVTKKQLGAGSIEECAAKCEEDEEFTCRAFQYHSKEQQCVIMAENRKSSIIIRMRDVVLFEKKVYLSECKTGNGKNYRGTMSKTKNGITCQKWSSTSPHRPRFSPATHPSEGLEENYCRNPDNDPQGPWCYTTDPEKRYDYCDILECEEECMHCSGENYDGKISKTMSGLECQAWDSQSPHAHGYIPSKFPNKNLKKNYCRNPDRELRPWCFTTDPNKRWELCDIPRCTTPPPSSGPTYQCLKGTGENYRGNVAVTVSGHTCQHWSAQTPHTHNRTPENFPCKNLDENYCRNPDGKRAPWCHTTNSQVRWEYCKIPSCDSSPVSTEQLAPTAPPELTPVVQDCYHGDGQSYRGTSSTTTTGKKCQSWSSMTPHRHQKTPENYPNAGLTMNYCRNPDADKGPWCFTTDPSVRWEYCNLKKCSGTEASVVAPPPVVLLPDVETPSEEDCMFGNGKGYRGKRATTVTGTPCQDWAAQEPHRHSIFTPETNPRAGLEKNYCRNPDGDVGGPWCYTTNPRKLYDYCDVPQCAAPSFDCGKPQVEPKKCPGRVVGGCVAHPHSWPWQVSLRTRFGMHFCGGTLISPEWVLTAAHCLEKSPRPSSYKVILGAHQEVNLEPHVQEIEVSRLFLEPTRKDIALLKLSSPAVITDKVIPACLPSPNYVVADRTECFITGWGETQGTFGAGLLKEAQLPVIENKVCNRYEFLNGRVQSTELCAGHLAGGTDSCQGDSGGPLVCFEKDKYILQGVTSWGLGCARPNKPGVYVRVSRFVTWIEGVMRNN

[6] = tested on: whole blood or citrated blood from normal subjects; settings: cited from earlier work
[7] = cited from earlier work; remark: listed apart in the source
[8] = Binary mixtures study: discoloration at 60° C., visual inspection; type: physicochemical; settings: binary mixture with TXA in phosphoric acid solution pH 5.5, glass vials, 60° C. oven, 2 weeks
Protocol: To determine which components of the formulation were responsible for the discoloration, binary mixtures of TXA and each component were dissolved in phosphoric acid solution at pH 5.5 in amounts representative to their concentration in Formulation A of Table 1A.
Samples of each mixture in Table 1B were placed in glass vials and stored in 60° C. oven for 2 weeks and visually inspected periodically for discoloration. The samples from Table 1B containing TXA and Sorbitol (sample 5), or TXA and Glycerin (sample 3), or TXA and Poloxamer 407 (sample 6), or TXA and spearmint flavor F-4785, turned yellow. Thus sorbitol, glycerin, poloxamer 407 and spearmint flavor were considered to be the ingredients responsible for the discoloration of formula A.
Binary mixtures of TXA and alternative surfactants were prepared and samples were stored in a 60° C. oven to test for discoloration as described in Table 2.
Binary mixtures of Na CMC and TXA were prepared and stored at 60° C. for 2 weeks to test for discoloration as in Table 3.

[9] = after oral and intravenous administration
[10] = four doses of 10-20 mg per kg body weight 36-48 hours before surgery
[11] = three hours after a single oral dose of 25 mg per kg body weight

Chain of serum albumin (P02768 25-609): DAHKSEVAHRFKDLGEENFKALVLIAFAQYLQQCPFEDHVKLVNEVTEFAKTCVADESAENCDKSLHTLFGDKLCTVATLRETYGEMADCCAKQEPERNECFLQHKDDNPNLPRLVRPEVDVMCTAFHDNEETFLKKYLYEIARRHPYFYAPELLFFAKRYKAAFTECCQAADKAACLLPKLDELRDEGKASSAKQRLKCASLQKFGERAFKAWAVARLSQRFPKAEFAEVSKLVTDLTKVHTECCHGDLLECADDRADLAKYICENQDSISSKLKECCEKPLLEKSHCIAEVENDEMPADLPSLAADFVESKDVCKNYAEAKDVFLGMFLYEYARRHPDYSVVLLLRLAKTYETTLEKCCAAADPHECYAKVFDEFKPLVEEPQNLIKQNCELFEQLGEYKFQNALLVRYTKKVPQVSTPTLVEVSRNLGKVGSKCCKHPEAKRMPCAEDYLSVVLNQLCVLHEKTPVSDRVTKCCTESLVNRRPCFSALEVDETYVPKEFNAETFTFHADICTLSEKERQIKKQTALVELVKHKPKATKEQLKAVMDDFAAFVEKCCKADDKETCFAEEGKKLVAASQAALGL

Molecule: NC[C@H]1CC[C@H](C(=O)O)CC1 [tranexamic acid, trans-4-(aminomethyl) cyclohexanecarboxylic acid]
incidence of bleeding during or after dental procedures (postoperative bleeding) [1]: significantly reduces
concentrations in saliva, initially ([2]; after mouth rinse): above 200 μg per mL
plasma concentrations ([2]; after mouth rinse): below 2 μg per mL
time saliva concentrations remained above therapeutic levels ([2]; after mouth rinse): more than 2 hours
saliva levels ([2]; after oral administration, any time point): undetectable
maximum mean plasma concentration ([2]; after oral administration): ~7 μg per mL
time to maximum mean plasma concentration ([2]; after oral administration): 120 min
binding to serum albumin [3]: does not bind
plasma protein binding ([4]; at therapeutic plasma levels of 5-10 mg/L): negligible
plasma protein binding ([4]; at therapeutic plasma levels): about 3%
binding to strong and weak sites in the plasminogen molecule relative to epsilon aminocaproic acid (EACA) [5]: considerably more strongly
thrombin time ([6]; concentrations of 1 mg to 10 mg per mL blood): prolongs
influence on the platelet count, the coagulation time, or various coagulation factors ([6]; concentrations up to 10 mg per mL blood, whole blood or citrated blood from normal subjects): no influence
excretion ([7]; 24 hours after oral administration of 10-15 mg per kg body weight): 39%
concentration in fetal serum ([7]; after intravenous injection of 10 mg per kg body weight): about 30 μg per mL
acetylated product excreted ([7]; after oral administration): ~0.5%
deaminated dicarboxylic acid excreted ([7]; after oral administration): ~2%
parent compound excreted ([7]; after oral administration): approximately 50%
fibrinolytic activity of the semen [7, 9]: inhibits
motility of the spermatozoa [7, 9]: without affecting
passage into the semen [7, 9]: passes into the semen
concentration in breast milk relative to corresponding serum levels ([7]; during lactation): 1/100
plasma concentration ([7]; five hours after intravenous 10 mg per kg body weight): 5 μg per mL
time an antifibrinolytically active concentration (10 μg/mL) remained in the serum [7, 10]: 7 to 8 h
time an antifibrinolytically active concentration (10 μg/mL) remained in the tissues investigated [7, 10]: up to 17 hours
biological half-life in the joint fluid ([7]; in vivo): about 3 hours
concentration in the joint fluid compared with the serum ([7]; in vivo): same concentration
dose excreted in the urine as unchanged drug ([7]; in vivo): more than 95%
fraction of the drug metabolized ([7]; in vivo): less than 5%
placental transfer ([7]; in vivo): crosses the placenta
half-life for the terminal elimination phase ([7]; intravenous dose of 1 g): about 2 hours
plasma concentration ([7]; one hour after intravenous 10 mg per kg body weight): 18.3 μg per mL
excretion ([7]; one hour after intravenous administration of 10 mg per kg body weight): about 30%
excretion ([7]; one hour after oral administration of 10-15 mg per kg body weight): 1%
effect of food intake on bioavailability ([7]; oral): not affected
ability to cross the blood-brain barrier ([7]; patients with ruptured intracranial aneurysms): has been demonstrated
aqueous humor level [7, 11]: 1.6 mg per L
peak serum level [7, 11]: 15.4 mg per L
plasma concentration ([7]; three hours after intravenous 10 mg per kg body weight): 9.6 μg per mL
excretion ([7]; three hours after intravenous administration of 10 mg per kg body weight): ~55%
excretion ([7]; three hours after oral administration of 10-15 mg per kg body weight): 7%

Molecule: alpha-D-Glucopyranoside, beta-D-fructofuranosyl, monooctadecanoate [Sucrose Stearate]
Discoloration [8]: did not dissolve into solution

Molecule: beta-D-Fructofuranosyl-alpha-D-glucopyranoside, monododecanoate [Sucrose Laurate]
Discoloration [8]: didn't cause discoloration

Discoloration [8]: didn't cause discoloration
Molecule: polyoxyethylene (20)sorbitan monooleate [Tween 80]

Discoloration [8]: didn't cause discoloration
Molecule: polyoxyethylene sorbitan monolaurate [Tween 20]

Source: patent publication US11666532B2, “Tranexamic acid oral solution” (Hyloris Developments SA, priority 2018, dated 2023)
